Data as given in patent US20220220128A1, “HETEROCYCLIC COMPOUNDS AS KINASE INHIBITORS, COMPOSITIONS COMPRISING THE HETEROCYCLIC COMPOUND, AND METHODS OF USE THEREOF” (JS Innopharm (Shanghai) Ltd, priority 2019, published 2022).

Key:
human RET kinase = biological target: T1, human RET kinase (Homo sapiens, UniProt P07949); test: RET Kinase Assay (LanthaScreen TR-FRET enzymatic assay); type: biochemical; conditions: 7 nM RET, 23 μM ATP
T1 construct: purchased Carna 08-159
Summary of the method: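 TR-FRET enzymatic read-out using 23 μM ATP, 3 μM FAM-P2 substrate and 7 nM human RET, after 15-min compound pretreatment at room temperature and a 1 h reaction at 28° C in HEPES pH 7.5 buffer. Percent of DMSO control fitted to nonlinear sigmoid curves for IC50.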

human KDR kinase = biological target: T2, human KDR kinase (Homo sapiens, UniProt P35968); test: KDR Kinase Assay (LanthaScreen TR-FRET enzymatic assay); type: biochemical; conditions: 1.2 nM KDR, 92 μM ATP
T2 construct: purchased Carna 08-191
T2 sequence (P35968 20-1356): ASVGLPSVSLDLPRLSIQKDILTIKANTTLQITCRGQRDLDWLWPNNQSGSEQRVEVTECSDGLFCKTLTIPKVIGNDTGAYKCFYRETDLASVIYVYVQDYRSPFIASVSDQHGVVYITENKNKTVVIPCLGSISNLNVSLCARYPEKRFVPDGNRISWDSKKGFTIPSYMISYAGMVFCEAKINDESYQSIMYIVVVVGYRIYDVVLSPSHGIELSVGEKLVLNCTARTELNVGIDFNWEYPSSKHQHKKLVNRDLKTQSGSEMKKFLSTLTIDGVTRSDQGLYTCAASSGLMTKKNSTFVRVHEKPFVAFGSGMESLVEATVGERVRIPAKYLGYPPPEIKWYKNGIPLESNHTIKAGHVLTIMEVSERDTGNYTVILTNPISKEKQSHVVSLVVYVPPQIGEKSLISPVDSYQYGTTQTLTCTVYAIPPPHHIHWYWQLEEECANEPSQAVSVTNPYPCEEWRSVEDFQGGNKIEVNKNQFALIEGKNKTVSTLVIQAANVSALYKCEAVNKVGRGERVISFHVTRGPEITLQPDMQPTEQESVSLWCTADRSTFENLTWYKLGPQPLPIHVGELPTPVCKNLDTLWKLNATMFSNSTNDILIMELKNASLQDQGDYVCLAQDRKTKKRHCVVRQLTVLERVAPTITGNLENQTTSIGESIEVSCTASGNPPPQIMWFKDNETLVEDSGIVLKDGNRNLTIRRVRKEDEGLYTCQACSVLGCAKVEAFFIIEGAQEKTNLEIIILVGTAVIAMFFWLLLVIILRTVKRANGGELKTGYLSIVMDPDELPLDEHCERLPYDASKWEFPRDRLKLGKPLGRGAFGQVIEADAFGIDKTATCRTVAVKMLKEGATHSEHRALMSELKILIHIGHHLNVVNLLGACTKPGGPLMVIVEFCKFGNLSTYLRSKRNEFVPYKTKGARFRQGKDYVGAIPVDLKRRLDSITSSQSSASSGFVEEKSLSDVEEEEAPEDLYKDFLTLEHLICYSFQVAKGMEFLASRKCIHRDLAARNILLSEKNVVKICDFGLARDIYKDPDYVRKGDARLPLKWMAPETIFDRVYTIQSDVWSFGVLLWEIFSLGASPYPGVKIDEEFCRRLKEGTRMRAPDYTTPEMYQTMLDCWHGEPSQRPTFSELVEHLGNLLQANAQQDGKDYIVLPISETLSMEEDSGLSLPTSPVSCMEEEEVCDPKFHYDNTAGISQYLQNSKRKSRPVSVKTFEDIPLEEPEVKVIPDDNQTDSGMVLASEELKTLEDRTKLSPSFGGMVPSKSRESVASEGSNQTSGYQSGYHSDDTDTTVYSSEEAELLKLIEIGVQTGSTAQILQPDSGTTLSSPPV
Summary of the method: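 TR-FRET enzymatic format: after 15-min room-temperature compound pretreatment, 1.2 nM human KDR phosphorylated 3 μM FAM-P22 with 92 μM ATP (HEPES pH 7.5, 28° C., one hour). Reactions were quenched with EDTA buffer. IC50 came from nonlinear sigmoid fits of percent-of-vehicle signal ratios.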

TT cells = test: TT Cell Proliferation Assay (WST-8, 8 days); type: cell-based; conditions: Homo sapiens, TT, 192 h, growth inhibition in TT cells, read-out: TT Cellular Activity
Summary of the method: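 IC50 was derived from absorbance at 450 nm after 5 h with WST-8, following 8 days' incubation at 37 °C. Final compound levels spanned 0.0005–5 μM in 0.5% DMSO. TT cells were seeded at 6,000 per well in 10% FBS RPMI-1640 and left to attach for 24 h beforehand.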

T1 sequence (P07949 29-1114): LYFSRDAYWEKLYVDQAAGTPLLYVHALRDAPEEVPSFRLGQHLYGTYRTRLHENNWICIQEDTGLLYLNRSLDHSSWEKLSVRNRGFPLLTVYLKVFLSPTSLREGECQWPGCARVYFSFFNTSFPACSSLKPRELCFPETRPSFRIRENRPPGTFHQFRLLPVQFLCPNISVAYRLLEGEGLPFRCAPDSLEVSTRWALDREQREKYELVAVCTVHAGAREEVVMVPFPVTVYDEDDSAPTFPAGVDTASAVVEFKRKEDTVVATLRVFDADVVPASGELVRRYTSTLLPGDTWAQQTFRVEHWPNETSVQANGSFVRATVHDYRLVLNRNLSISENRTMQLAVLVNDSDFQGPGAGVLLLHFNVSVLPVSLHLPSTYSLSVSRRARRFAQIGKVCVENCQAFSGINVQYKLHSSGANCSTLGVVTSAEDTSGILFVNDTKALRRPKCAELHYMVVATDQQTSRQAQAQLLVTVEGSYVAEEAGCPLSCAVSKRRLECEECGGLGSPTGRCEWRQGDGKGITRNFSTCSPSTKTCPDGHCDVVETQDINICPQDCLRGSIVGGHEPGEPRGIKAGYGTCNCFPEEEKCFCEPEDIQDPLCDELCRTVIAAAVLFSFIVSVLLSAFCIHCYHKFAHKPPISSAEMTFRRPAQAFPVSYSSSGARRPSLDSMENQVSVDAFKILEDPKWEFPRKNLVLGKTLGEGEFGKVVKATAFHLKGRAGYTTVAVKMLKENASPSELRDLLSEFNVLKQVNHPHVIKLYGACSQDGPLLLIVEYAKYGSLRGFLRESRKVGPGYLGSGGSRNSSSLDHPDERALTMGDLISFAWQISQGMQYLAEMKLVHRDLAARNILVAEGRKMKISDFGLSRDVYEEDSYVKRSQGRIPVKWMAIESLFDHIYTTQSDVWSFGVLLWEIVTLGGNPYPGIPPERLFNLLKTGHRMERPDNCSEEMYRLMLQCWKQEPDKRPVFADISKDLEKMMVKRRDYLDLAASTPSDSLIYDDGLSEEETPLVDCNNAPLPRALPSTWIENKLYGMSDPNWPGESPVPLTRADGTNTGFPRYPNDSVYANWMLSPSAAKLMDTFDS

Compound | IC50 (human RET kinase) [nM] | IC50 (human KDR kinase) [nM] | IC50 (TT cells) [nM]
COc1ccc(C(=O)N[C@H]2[C@@H]3CN(c4ccc(-c5cc(-c6cnn(C)c6)cn6ncc(C#N)c56)cc4)C[C@@H]32)cn1 [Example 15, N-((1R,5S,6s)-3-(4-(3-cyano-6-(1-methyl-1H-pyrazol-4-yl)pyrazolo[1,5-a]pyridin-4-yl)phenyl)-3-azabicyclo[3.1.0]hexan-6-yl)-6-methoxynicotinamide] | 10 to 50 | 50 to 100 | 10 to 50
Cn1ccc(-c2cc(-c3ccc(N4C[C@@H]5[C@H](C4)[C@H]5NC(=O)c4ncccc4Cl)nc3)c3c(C#N)cnn3c2)n1 [Example 29, 3-chloro-N-((1R,5S,6s)-3-(5-(3-cyano-6-(1-methyl-1H-pyrazol-3-yl)pyrazolo[1,5-a]pyridin-4-yl)pyridin-2-yl)-3-azabicyclo[3.1.0]hexan-6-yl)picolinamide] | ≤ 10 | 10 to 50 | 50 to 100
Cc1cccc(Cl)c1C(=O)N[C@H]1[C@@H]2CN(c3ccc(-c4cc(-c5cnn(C)c5)cn5ncc(C#N)c45)cn3)C[C@@H]21 [Example 23, 2-chloro-N-((1R,5S,6s)-3-(5-(3-cyano-6-(1-methyl-1H-pyrazol-4-yl)pyrazolo[1,5-a]pyridin-4-yl)pyridin-2-yl)-3-azabicyclo[3.1.0]hexan-6-yl)-6-methylbenzamide] | ≤ 10 | ≤ 10 | ≤ 10
CC(C)CC(=O)N[C@H]1[C@@H]2CN(c3ccc(-c4cc(-c5cnn(C)c5)cn5ncc(C#N)c45)cn3)C[C@@H]21 [Example 25, N-((1R,5S,6s)-3-(5-(3-cyano-6-(1-methyl-1H-pyrazol-4-yl)pyrazolo[1,5-a]pyridin-4-yl)pyridin-2-yl)-3-azabicyclo[3.1.0]hexan-6-yl)-3-methylbutanamide] | ≤ 10 | 10 to 50 | 10 to 50
CC(C)C(O)C(=O)N1C[C@@H]2CN(c3ccc(-c4cc(-c5cnn(C)c5)cn5ncc(C#N)c45)cn3)C[C@@H]2C1 (stereo partly drawn) [Example 2] | ≤ 10 | 10 to 50 | 10 to 50
Cn1cc(-c2cc(-c3ccc(N4C[C@@H]5[C@H](C4)[C@@H]5NC(=O)Nc4ccccc4)nc3)c3c(C#N)cnn3c2)cn1 [Example 36, 1-((1R,5S,6r)-3-(5-(3-cyano-6-(1-methyl-1H-pyrazol-4-yl)pyrazolo[1,5-a]pyridin-4-yl)pyridin-2-yl)-3-azabicyclo[3.1.0]hexan-6-yl)-3-phenylurea] | ≤ 10 | ≤ 10 | 10 to 50
Cn1cc(-c2cc(-c3ccc(N4C[C@@H]5[C@H](C4)[C@@H]5NC(=O)c4ncccc4Cl)nc3)c3c(C#N)cnn3c2)cn1 [Example 30, 3-chloro-N-((1R,5S,6r)-3-(5-(3-cyano-6-(1-methyl-1H-pyrazol-4-yl)pyrazolo[1,5-a]pyridin-4-yl)pyridin-2-yl)-3-azabicyclo[3.1.0]hexan-6-yl)picolinamide] | ≤ 10 | 10 to 50 | 10 to 50
Cn1cc(-c2cc(-c3ccc(N4C[C@@H]5[C@H](C4)[C@H]5NC(=O)c4c(F)cccc4Cl)nc3)c3c(C#N)cnn3c2)cn1 [Example 24, 2-chloro-N-((1R,5S,6s)-3-(5-(3-cyano-6-(1-methyl-1H-pyrazol-4-yl)pyrazolo[1,5-a]pyridin-4-yl)pyridin-2-yl)-3-azabicyclo[3.1.0]hexan-6-yl)-6-fluorobenzamide] | ≤ 10 | ≤ 10 | 10 to 50
Cn1cc(-c2cc(-c3ccc(N4C[C@@H]5[C@H](C4)[C@H]5NC(=O)c4ncc(F)cc4Cl)nc3)c3c(C#N)cnn3c2)cn1 [Example 22, 3-chloro-N-((1R,5S,6s)-3-(5-(3-cyano-6-(1-methyl-1H-pyrazol-4-yl)pyrazolo[1,5-a]pyridin-4-yl)pyridin-2-yl)-3-azabicyclo[3.1.0]hexan-6-yl)-5-fluoropicolinamide] | ≤ 10 | 10 to 50 | 50 to 100
COc1ccc(CN2C[C@@H]3CN(c4ccc(-c5cc(-c6ccn(C)n6)cn6ncc(C#N)c56)cn4)C[C@@H]3C2)cn1 [Example 13, 4-(6-((3aR,6aS)-5-((6-methoxypyridin-3-yl)methyl)hexahydropyrrolo[3,4-c]pyrrol-2(1H)-yl)pyridin-3-yl)-6-(1-methyl-1H-pyrazol-3-yl)pyrazolo[1,5-a]pyridine-3-carbonitrile] | ≤ 10 | 10 to 50 | 10 to 50
Cn1cc(-c2cc(-c3ccc(N4C[C@@H]5C[C@@](C)(NC(=O)c6c(F)cccc6Cl)C[C@@H]5C4)nc3)c3c(C#N)cnn3c2)cn1 [Example 57, 2-chloro-N-((3aR,5s,6aS)-2-(5-(3-cyano-6-(1-methyl-1H-pyrazol-4-yl)pyrazolo[1,5-a]pyridin-4-yl)pyridin-2-yl)-5-methyloctahydro-cyclopenta[c]pyrrol-5-yl)-6-fluorobenzamide] | 10 to 50 | > 100 | ≤ 10
CC(C)[C@@H](O)C(=O)N[C@H]1[C@@H]2CN(c3ccc(-c4cc(-c5cnn(C)c5)cn5ncc(C#N)c45)cn3)C[C@@H]21 [Example 19, (R)-N-((1R,5S,6s)-3-(5-(3-cyano-6-(1-methyl-1H-pyrazol-4-yl)pyrazolo[1,5-a]pyridin-4-yl)pyridin-2-yl)-3-azabicyclo[3.1.0]hexan-6-yl)-2-hydroxy-3-methylbutanamide] | ≤ 10 | 10 to 50 | 10 to 50
Cn1cc(-c2cc(-c3ccc(N4C[C@@H]5[C@@H](CNC(=O)OC(C)(C)C)[C@@H]5C4)nc3)c3c(C#N)cnn3c2)cn1 [Example 71, tert-butyl (((1R,5S,6s)-3-(5-(3-cyano-6-(1-methyl-1H-pyrazol-4-yl)pyrazolo[1,5-a]pyridin-4-yl)pyridin-2-yl)-3-azabicyclo[3.1.0]hexan-6-yl)methyl)carbamate] | ≤ 10 | 10 to 50 | ≤ 10

More lines, main results first:

IC50 (human RET kinase) [nM] | IC50 (human KDR kinase) [nM] | Compound | IC50 (TT cells) [nM]
≤ 10 | ≤ 10 | Cn1cc(-c2cc(-c3ccc(N4C[C@@H]5[C@@H](CNC(=O)c6ncc(F)cc6Cl)[C@@H]5C4)nc3)c3c(C#N)cnn3c2)cn1 [Example 85, 3-chloro-N-(((1R,5S,6s)-3-(5-(3-cyano-6-(1-methyl-1H-pyrazol-4-yl)pyrazolo[1,5-a]pyridin-4-yl)pyridin-2-yl)-3-azabicyclo[3.1.0]hexan-6-yl)methyl)-5-fluoropicolinamide] | ≤ 10
10 to 50 | > 100 | CC(C)(O)COc1cc(-c2ccc(N3C[C@@H]4[C@@H](CNS(=O)(=O)c5c(F)cccc5Cl)[C@@H]4C3)nc2)c2c(C#N)cnn2c1 [Example 184, 2-chloro-N-(((1R,5S,6r)-3-(5-(3-cyano-6-(2-hydroxy-2-methylpropoxy)pyrazolo[1,5-a]pyridin-4-yl)pyridin-2-yl)-3-azabicyclo[3.1.0]hexan-6-yl)methyl)-6-fluorobenzenesulfonamide] | 50 to 100
≤ 10 | ≤ 10 | Cn1cc(-c2cc(-c3ccc(N4C[C@@H]5[C@@H](CNC(=O)c6cc(F)ccc6Cl)[C@@H]5C4)nc3)c3c(C#N)cnn3c2)cn1 [Example 80, 2-chloro-N-(((1R,5S,6s)-3-(5-(3-cyano-6-(1-methyl-1H-pyrazol-4-yl)pyrazolo[1,5-a]pyridin-4-yl)pyridin-2-yl)-3-azabicyclo[3.1.0]hexan-6-yl)methyl)-5-fluorobenzamide] | ≤ 10
10 to 50 | 10 to 50 | Cn1ccc(-c2cc(-c3ccc(N4C[C@@H]5CN(S(=O)(=O)c6c(F)cccc6Cl)C[C@@H]5C4)nc3)c3c(C#N)cnn3c2)n1 [Example 179, 4-(6-((3aR,6aS)-5-((2-chloro-6-fluorophenyl)sulfonyl)hexahydropyrrolo[3,4-c]pyrrol-2(1H)-yl)pyridin-3-yl)-6-(1-methyl-1H-pyrazol-3-yl)pyrazolo[1,5-a]pyridine-3-carbonitrile] | ≤ 10
≤ 10 | 10 to 50 | Cn1cc(-c2cc(-c3cnc(N4C[C@@H]5C[C@@](C)(NC(=O)c6ncccc6F)C[C@@H]5C4)cn3)c3c(C#N)cnn3c2)cn1 [Example 142, N-((3aR,5s,6aS)-2-(5-(3-cyano-6-(1-methyl-1H-pyrazol-4-yl)pyrazolo[1,5-a]pyridin-4-yl)pyrazin-2-yl)-5-methyloctahydrocyclopenta[c]pyrrol-5-yl)-3-fluoropicolinamide] | ≤ 10
≤ 10 | 10 to 50 | Cn1ccc(-c2cc(-c3cnc(N4C[C@@H]5C[C@@](C)(NC(=O)c6ncccc6F)C[C@@H]5C4)cn3)c3c(C#N)cnn3c2)n1 [Example 140, N-((3aR,5s,6aS)-2-(5-(3-cyano-6-(1-methyl-1H-pyrazol-3-yl)pyrazolo[1,5-a]pyridin-4-yl)pyrazin-2-yl)-5-methyloctahydrocyclopenta[c]pyrrol-5-yl)-3-fluoropicolinamide] | 10 to 50
≤ 10 | 10 to 50 | Cn1ccc(-c2cc(-c3ccc(N4C[C@@H]5C[C@@](C)(NS(=O)(=O)c6c(F)cccc6Cl)C[C@@H]5C4)nc3)c3c(C#N)cnn3c2)n1 [Example 178, 2-chloro-N-((3aR,5s,6aS)-2-(5-(3-cyano-6-(1-methyl-1H-pyrazol-3-yl)pyrazolo[1,5-a]pyridin-4-yl)pyridin-2-yl)-5-methyloctahydrocyclopenta[c]pyrrol-5-yl)-6-fluorobenzenesulfonamide] | ≤ 10
